Assay results from PMC9346089 (The FEBS journal, 2022).

Columns and labels:
Conditions in all cases: 5 uM vitamin K epoxide in medium; HEK293 VKORC1/VKORL1 knockout
[1] = tested on: S3-TM5/Trx; test: cell-based gamma-carboxylation reporter; parameters: species or system Synechococcus sp. JA-2-3B'a(2-13)
[2] = tested on: S3; test: cell-based gamma-carboxylation reporter; parameters: species or system Synechococcus sp. JA-2-3B'a(2-13)
[3] = tested on: M1
[4] = tested on: M2

## CC(=O)CC(c1ccccc1)c1c(O)c2ccccc2oc1=O (stereo not shown) [warfarin]
[1]
  IC50: 1110 nM
[2]
  IC50: 190 nM
[3]
  IC50: 400 nM
[4]
  IC50: 1870 nM
